The values that follow are results of earlier work, collected in USRE42412E1, “Materials and methods for the treatment of gastroesophageal reflux disease” (ARYx Therapeutics, Inc., priority 2000, dated 2011).

For data set [1] the following is noted: of a dose of cisapride.
The conditions of data set [2]: between July 1993 and December 1999.
The next data set addresses 5HT4 receptors (Homo sapiens, UniProt Q13639).

Sequence of 5HT4 receptors (Q13639 whole entry): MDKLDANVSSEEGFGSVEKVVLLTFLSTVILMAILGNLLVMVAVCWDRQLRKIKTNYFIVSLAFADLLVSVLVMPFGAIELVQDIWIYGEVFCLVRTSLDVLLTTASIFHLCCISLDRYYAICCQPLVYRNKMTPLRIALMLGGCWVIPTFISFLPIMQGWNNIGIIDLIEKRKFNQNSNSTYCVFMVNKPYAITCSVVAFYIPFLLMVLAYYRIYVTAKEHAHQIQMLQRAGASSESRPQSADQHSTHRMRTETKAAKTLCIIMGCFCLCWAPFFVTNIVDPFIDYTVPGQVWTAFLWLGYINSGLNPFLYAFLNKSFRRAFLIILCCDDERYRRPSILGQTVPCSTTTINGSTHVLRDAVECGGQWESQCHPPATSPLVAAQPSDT

In the case of `COc1cc(N)c(Cl)cc1C(=O)NC1CCN(CCCOc2ccc(F)cc2)CC1OC` (stereo not shown) [cisapride], the “fraction of dose metabolized by oxidative N-dealkylation at the piperidine nitrogen or aromatic hydroxylation” value in data set [1] is listed as “More than 90%”. In data set [2], the deaths reported is 80. The “serious cardiac arrhythmias reportedly associated” value in data set [2] (ventricular tachycardia, ventricular fibrillation, torsades de pointes, QT prolongation) is on record as “at least 341”. Further, the “ligand potency at 5HT4 receptors” value on 5HT4 receptors is on record as “potent ligand”.
